Consider 35 compounds from US8580815B2, “Derivatives of azaindoles as inhibitors of protein kinases ABL and SRC” (Oribase Pharma, priority 2009, dated 2013).

pIC50: −log10 of the molar value. Read-outs that look alike come from different tables or passages of the source.

By inhibition is commonly meant the percentage by which the read-out fell short of the control. As usually defined, the pIC50 is −log10 of the IC50, conventionally taken in molar units.

In experiment [1] the target is Abl kinase (h) (Homo sapiens (Human), UniProt P00519). The experiment can be described thus: Cerep kinase profiling, HTRF assay, Abl kinase. Type of experiment: biochemical. How it is done:
The inhibitory activity of the compounds of the chemical series on different protein kinases was evaluated by Cerep (Cerep Kinase Profiling Service; www.cerep.com). The kinases used in the tests in vitro are human recombinant proteins expressed in human cells, insect cells or in bacteria. […] The activity of the kinase was then detected by an HTRF assay. The HTRF assay (CisBio International) is based on fluorescence transfer, using Europium (Eu3+) cryptate and XL665 respectively as donor and acceptor. When the biotinylated or tagged substrate is phosphorylated by the kinase, it reacts with a cryptate-labelled phosphospecific antibody. Addition of Streptavidin-XL665, SA-XL665, (or anti-tag antibody XL665) leads to juxtaposition of the cryptate and of the fluorophore XL665, which is reflected in fluorescence resonance energy transfer (FRET). The intensity of FRET depends on the quantity of cryptate-labelled antibody bound to the substrate, which is proportional to the quantity of phosphorylated substrate (Mathis, G. Probing molecular interactions with homogeneous techniques based on rare earth cryptates and fluorescence energy transfer.

The target of experiment [2] is Abl WT (Homo sapiens (Human), UniProt P00519). As to the kind of experiment: Reaction Biology Corp. kinase assay, Abl WT. Format: biochemical. The note with it: compounds tested by Reaction Biology Corp.; for inhibition at 10 µM: read-out: % inhibition of kinase activity, Abl WT (category). The protocol: (§1) 4 compounds were tested for their capacity to inhibit various mutated kinases AbI (American company, Reaction Biology Corp.).

Experiment [3] addresses Src kinase (Homo sapiens (Human), UniProt P12931). The experiment can be described thus: Reaction Biology Corp. kinase assay, Src. The settings on record: compounds tested by Reaction Biology Corp.; for inhibition at 10 µM: read-out: % inhibition of kinase activity, Src (category), 10 μM.
The target in experiment [4] is Abl T315I (Homo sapiens (Human), UniProt P00519, T315I). The experiment can be described thus: Reaction Biology Corp. kinase assay, mutated Abl T315I. Type of experiment: biochemical. The note with it: 10 μM; Reaction Biology Corp.; read-out: % inhibition of kinase activity, Abl T315I (category). The protocol: as §1
[5] abbreviates: 10 μM, compounds tested by Cerep, read-out: % inhibition of kinase activity, Abl WT (category).
The mark [6] stands for this setting: Table 6, compound incubated at 10 μM, read-out: Percentage inhibition of kinase Abl.
Setting [7] is: Table 9, Cerep, 5 concentrations 10^−10 M to 10^−4 M, read-out: IC50 in M Abl.
[8] abbreviates: compounds tested by Cerep, read-out: IC50 on kinase Abl WT (category).

Chain of Src kinase (P12931 whole entry, looked up): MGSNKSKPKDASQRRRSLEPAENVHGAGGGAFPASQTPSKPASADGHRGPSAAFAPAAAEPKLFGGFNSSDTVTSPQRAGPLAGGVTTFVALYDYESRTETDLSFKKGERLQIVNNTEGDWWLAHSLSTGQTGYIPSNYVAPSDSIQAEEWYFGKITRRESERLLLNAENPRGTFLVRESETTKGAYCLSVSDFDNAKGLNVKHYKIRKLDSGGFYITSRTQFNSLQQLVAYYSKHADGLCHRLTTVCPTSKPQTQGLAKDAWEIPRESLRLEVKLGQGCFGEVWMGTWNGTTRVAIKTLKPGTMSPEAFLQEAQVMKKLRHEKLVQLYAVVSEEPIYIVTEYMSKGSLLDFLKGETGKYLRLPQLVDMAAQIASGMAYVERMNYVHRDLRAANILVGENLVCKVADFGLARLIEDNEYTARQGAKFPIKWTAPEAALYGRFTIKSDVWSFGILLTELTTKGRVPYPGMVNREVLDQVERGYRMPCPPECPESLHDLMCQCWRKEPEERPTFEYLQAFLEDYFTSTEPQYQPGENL

On to `COc1ccc(OC(=O)c2cc3cc(NC(=O)c4ccccc4)cnc3[nH]2)cc1` [ND0004, 5-(benzamido)-1H-pyrrolo[2,3-b]pyridine-2-4-methoxyphenyl carboxylate], for which the inhibition at 10 µM in experiment [1] (setting [5]) was 10 to 50%; in experiment [1] (setting [6]), 31%.
The like results for `NC(=O)c1cc2cc(NC(=O)c3cccc(F)c3)cnc2[nH]1` [ND0005, 5-(3-Fluorobenzamido)-1H-pyrrolo[2,3-b]pyridine-2-carboxamide] were, in that order, 10 to 50% and 10%.
On to `O=C(Nc1cnc2[nH]c(C(=O)NCCN3CCOCC3)cc2c1)c1cccc(F)c1` [ND0006, 5-(3-fluorobenzamido)-N-(2-morpholinoethyl)-1H-pyrrolo[2,3-b]pyridine-2-carboxamide], for which the inhibition at 10 µM was 10 to 50% in experiment [1] (setting [5]) and 33% in experiment [1] (setting [6]). Also, the pIC50 was under 4.00 in experiment [1] (setting [7]) and under 5.00 in experiment [1] (setting [8]).
The corresponding values for `O=C(Nc1cnc2[nH]c(C(=O)N3CCOCC3)cc2c1)c1cc([N+](=O)[O-])ccc1F` [ND0010, 5-(2-fluoro-5-nitrobenzamido)-2-morpholinocarbonyl-1H-pyrrolo[2,3-b]pyridine] are under 10%, 1%, under 4.00 and under 5.00.
The corresponding values for `Cc1nc(-c2cccc(C(=O)Nc3cnc4[nH]c(C(=O)NCCCN(C)C)cc4c3)c2)cs1` [ND0011, 5-(3-(2-methylthiazol-4-yl)benzamido)-N-(3-(dimethylamino)propyl)-1H-pyrrolo[2,3-b]pyridine-2-carboxamide] are under 10%, 6%, under 4.00 and under 5.00.
Take `CN(C)CCCNC(=O)c1cc2cc(NC(=O)c3ccc4nccnc4c3)cnc2[nH]1` [ND0012, N-(2-(3-(dimethylamino)propylcarbamoyl)-1H-pyrrolo[2,3-b]pyridin-5-yl)quinoxaline-6-carboxamide]: the inhibition at 10 µM in experiment [1] (setting [5]) was under 10%; in experiment [1] (setting [6]) it was 8%.
The like results for `O=C(Nc1cnc2[nH]c(CO)cc2c1)c1ccccc1Br` [ND0019, 2-bromo-N-(2-(hydroxymethyl)-1H-pyrrolo[2,3-b]pyridin-5-yl)benzamide] were, in that order, over 50% and 82%.
Consider `O=C(Nc1cnc2[nH]c(C[C@H]3CCCO3)cc2c1)c1ccccc1Br` [ND0025], for which the inhibition at 10 µM in experiment [1] (setting [5]) is 10 to 50%; in experiment [1] (setting [6]), 39%.
The corresponding values for `CC1CCCCC1NCc1cc2cc(NC(=O)c3ccccc3Br)cnc2[nH]1` (stereo not shown) [ND0026] are under 10% and 8%.
The corresponding values for `O=C(Nc1cnc2[nH]c(CNc3cccc(Br)c3)cc2c1)c1ccccc1Br` [ND0027] are 10 to 50% and 29%.
The corresponding values for `O=C(Nc1cnc2[nH]c(CNCc3ccccc3)cc2c1)c1ccccc1Br` [ND0028] are 10 to 50% and 14%.
For the compound `O=C(Nc1cnc2[nH]c(Cn3ccnc3)cc2c1)c1ccccc1Br` [ND0031], the inhibition at 10 µM in experiment [1] (setting [5]) is over 50%; in experiment [1] (setting [6]) it was 86%. The pIC50 is 5.40 in experiment [1] (setting [7]) and 5.00 to 7.00 in experiment [1] (setting [8]).
With `N#Cc1ccc(NCc2cc3cc(NC(=O)c4ccccc4Br)cnc3[nH]2)cc1` [ND0032], the inhibition at 10 µM in experiment [1] (setting [5]) was 10 to 50%; in experiment [1] (setting [6]), 27%.
The corresponding values for `O=C(Nc1cnc2[nH]c(CNc3cccc([N+](=O)[O-])c3)cc2c1)c1ccccc1Br` [ND0034] are 10 to 50% and 17%.
The corresponding values for `N#Cc1ccccc1NCc1cc2cc(NC(=O)c3ccccc3Br)cnc2[nH]1` [ND0036] are 10 to 50% and 47%.
The like results for `Cc1cccc(NCc2cc3cc(NC(=O)c4ccccc4Br)cnc3[nH]2)c1` [ND0040] were, in that order, 10 to 50% and 21%.
`COc1cccc(NCc2cc3cc(NC(=O)c4ccccc4Br)cnc3[nH]2)c1` [ND0041]: the inhibition at 10 µM in experiment [1] (setting [5]) was 10 to 50%; in experiment [1] (setting [6]), 14%.
Take `COC(=O)c1cc2cc(NC(=O)C3CC3)cnc2[nH]1` [ND0044, Methyl 5-(cyclopropanecarboxamido)-1H-pyrrolo [2,3-b]pyridine-2-carboxylate]: the figures for the inhibition at 10 µM in experiment [1] (setting [5]) and in experiment [1] (setting [6]) were under 10% and 6%, respectively.
As to `COC(=O)c1cc2cc(NC(=O)C(C)C)cnc2[nH]1` [ND0045, Methyl 5-(isobutyramido)-1H-pyrrolo[2,3-b]pyridine-2-carboxylate], the results for the inhibition at 10 µM in experiment [1] (setting [5]) and in experiment [1] (setting [6]) were over 50% and 58%, respectively.
The corresponding values for `CCC(=O)Nc1cnc2[nH]c(C(=O)OC)cc2c1` [ND0046, Methyl 5-(propionamido)-1H-pyrrolo[2,3-b]pyridine-2-carboxylate] are 10 to 50% and 49%.
The corresponding values for `COC(=O)c1cc2cc(NC(=O)c3cccnc3)cnc2[nH]1` [ND0050, Methyl 5-(nicotinamido)-1H-pyrrolo[2,3-b]pyridine-2-carboxylate] are 10 to 50% and 27%.
The like results for `COC(=O)c1cc2cc(NC(=O)c3cccc(C#N)c3)cnc2[nH]1` [ND0051, Methyl 5-(3-cyanobenzamido)-1H-pyrrolo[2,3-b]pyridine-2-carboxylate] were, in that order, 10 to 50% and 20%.
Regarding `COC(=O)c1cc2cc(NC(=O)c3cccc(F)c3)cnc2[nH]1` [ND0053, Methyl 5-(3-fluorobenzamido)-1H-pyrrolo[2,3-b]pyridine-2-carboxylate], the inhibition at 10 µM in experiment [1] (setting [5]) was 10 to 50%; in experiment [1] (setting [6]), 33%.
Consider `COC(=O)c1cc2cc(NC(=O)c3ccc(-c4csc(C)n4)cc3)cnc2[nH]1` [ND0054, Methyl 5-(4-(2-methylthiazol-4-yl)benzamido)-1H-pyrrolo[2,3-b]pyridine-2-carboxylate], for which the inhibition at 10 µM in experiment [1] (setting [5]) was 10 to 50%; in experiment [1] (setting [6]) it was 15%.
As to `COC(=O)c1cc2cc(NCc3ccccc3Br)cnc2[nH]1` [ND0057], the inhibition at 10 µM in experiment [2] was over 50%; in experiment [3], over 50%; in experiment [4], under 10%. For the same compound, the pIC50 in experiment [2] (ATP at 10 μM, read-out: IC50 on kinase Abl WT (category)) was 5.00 to 7.00; in experiment [3] (IC50 on kinase Src (category), ATP at 10 μM), 5.00 to 7.00.
For `COC(=O)c1cc2cc(Nc3ccncc3)cnc2[nH]1` [ND0058], the inhibition at 10 µM in experiment [2] is 10 to 50%; in experiment [3], 10 to 50%; in experiment [4] it was under 10%.
Take `COC(=O)c1cc2cc(NC(=O)c3ccccc3Oc3ccccc3)cnc2[nH]1` [ND0059, Methyl 5-(2-phenoxybenzamido)-1H-pyrrolo[2,3-b]pyridine-2-carboxylate]: the figures for the inhibition at 10 µM in experiment [1] (setting [5]) and in experiment [1] (setting [6]) were under 10% and 5%, respectively.
The like results for `CCCSc1ncccc1C(=O)Nc1cnc2[nH]c(C(=O)OC)cc2c1` [ND0060, Methyl 5-(2-(propylthio)pyridine-3-carboxamido)-1H-pyrrolo[2,3-b]pyridine-2-carboxylate] were, in that order, 10 to 50% and 16%.
The corresponding values for `COC(=O)c1cc2cc(NC(=O)c3cccc(F)c3F)cnc2[nH]1` [ND0061, Methyl 5-(2,3-difluorobenzamido)-1H-pyrrolo[2,3-b]pyridine-2-carboxylate] are 10 to 50% and 46%.
The corresponding values for `COC(=O)c1cc2cc(NC(=O)c3cccc4c3OCC4)cnc2[nH]1` [ND0062, Methyl 5-(2,3-dihydrobenzofuran-7-carboxamido)-1H-pyrrolo[2,3-b]pyridine-2-carboxylate] are under 10% and 6%.
Regarding `COC(=O)c1cc2cc(NC(=O)c3ccccc3OC)cnc2[nH]1` [ND0073, Methyl 5-(2-methoxybenzamido)-1H-pyrrolo[2,3-b]pyridine-2-carboxylate], the inhibition at 10 µM in experiment [2] was 10 to 50%; in experiment [3], 10 to 50%; in experiment [4], under 10%.
Turning to `COC(=O)c1cc2cc(Nc3cccc(OC)c3)cnc2[nH]1` [ND0102], the inhibition at 10 µM in experiment [3] fell in the range of 10 to 50%.
Regarding `COC(=O)c1cc2cc(Nc3cccc(Br)c3)cnc2[nH]1` [ND0104], the inhibition at 10 µM in experiment [3] was under 10%.
The same measure, in the same setting: with `COC(=O)c1cc2cc(Nc3ccc(Br)cc3)cnc2[nH]1` [ND0107] the figure was 10 to 50%; with `COC(=O)c1cc2cc(Nc3ccc(OC)cc3)cnc2[nH]1` [ND0109], 10 to 50%.
